# Patent US20210177992A1, “ANTICANCER FLUORESCENT SUBSTANCE DERIVED FROM NATURAL MATERIALS” (SEOUL NATIONAL UNIVERSITY R&DB FOUNDATION, priority 2017, published 2021)
# Legend:
# [1] = test system: NIH3T3; test: Annexin V FACS apoptosis measurement; type: cell-based; details: NIH3T3 normal cell, 50 μM resveratrone, 24 hours
# Protocol: (§1) Cancer cell apoptotic effects of resveratrone and resveratrone glucoside (see U.S. Pat. No. 9,708,23762) were measured by FACS using Annexin-V binding to phosphatidiylserine (PS) which exists in the inner leaflet of the cytoplasmic membrane and is exposed to the outer leaflet of cell membrane during apoptosis.
# (§2) In detail, apoptosis of normal cells or cancer cells, each treated with resveratrone or resveratrone glucoside, was evaluated by measuring signals of Alexa dye-conjugated annexin V using FACS. HeLa, MCF7, SW480, SW620, and HCC1954 which are cancer cells, and NIH3T3 and MCF10A which are normal cells, each treated with 50 μM resveratrone or 100 μM resveratrone glucoside, were cultured under conditions of 37° C. and 5% CO2 for 24 hours. Thereafter, media was removed, and the cells were washed with PBS buffer twice to remove remaining resveratrone or resveratrone glucoside. The cells were collected and centrifuged to remove supernatants. Annexin-bound buffer (10 mM HEPES, 140 mM NaCl, 2.5 mM CaCl2, pH 7.4) was added and resuspended. 5 μl of Alexa Fluor 647-conjugated annexin V was added to the resuspended cells at the cell volume of 100 μl, followed by incubation for 15 minutes. 1 ml of binding buffer was added to the incubated cells, followed by centrifugation. The supernatant was removed to remove remaining Alexa Fluor 647-conjugated annexin V. Thereafter, 500 μl of annexin-binding buffer was further added, and cells were passed through a cell strainer cap and stored in a round-bottom tube.
# [2] = test system: SW620; test: Annexin V FACS apoptosis measurement; type: cell-based; details: SW620 cancer cell, 50 μM resveratrone, 24 hours
# Protocol: as §1, §2
# [3] = test system: MCF10A; test: Annexin V FACS apoptosis measurement; type: cell-based; details: MCF10A normal cell, 24 hours
# Protocol: as §1, §2
# [4] = test system: HeLa; test: Annexin V FACS apoptosis measurement; type: cell-based; details: HeLa cancer cell, 50 μM resveratrone, 24 hours
# Protocol: as §1, §2
# [5] = test system: SW480; test: Annexin V FACS apoptosis measurement; type: cell-based; details: SW480 cancer cell, 50 μM resveratrone, 24 hours
# Protocol: as §1, §2
# [6] = test system: MCF7; test: Annexin V FACS apoptosis measurement; type: cell-based; details: MCF7 cancer cell, 24 hours
# Protocol: as §1, §2
# [7] = test system: HCC1954; test: Annexin V FACS apoptosis measurement; type: cell-based; details: HCC1954 cancer cell, 50 μM resveratrone, 24 hours
# Protocol: as §1, §2
# [8] = test system: cancer cell MCF7; test: Cell morphology by optical microscopy; type: cell-based; details: MCF7, 50 μM, 48 hours
# Protocol: (§3) In detail, a normal cell MCF10A and a cancer cell MCF7 were treated with 50 μM of resveratrone, respectively, and incubated for 48 hours. After incubation, media was removed, and the cells were washed with PBS buffer three times. Changes of cell morphology in PBS buffer were observed and compared by optical microscopy.
# [9] = test system: normal cell MCF10A; test: Cell morphology by optical microscopy; type: cell-based; details: 50 μM, 48 hours
# Protocol: as §3
# [10] = test system: cancer cell MCF7; test: TUNEL assay; type: cell-based; details: MCF7, 50 μM, 24 hours
# Protocol: (§4) In detail, a cancer cell MCF7 and a normal cell MCF10A were treated with 50 μM of resveratrone or resveratrone glucoside, respectively, and incubated for 24 hours. Thereafter, the cells were treated with 0.5% PBS-Triton X-100 and incubated for 10 minutes to increase cell permeability. The cells were treated with terminal deoxynucleotide transferase and tetra-methyl-rhodamine dUTP, followed by incubation at 37° C. for 1 hour. Next, the cells were washed with PBS three times, and treated with DAPI dye for nuclear counterstaining. Apoptotic signals were observed using fluorescence images.
# [11] = test system: normal cell MCF10A; test: TUNEL assay; type: cell-based; details: 50 μM, 24 hours
# Protocol: as §4
# [12] = test system: zebrafish embryos; test: Cytotoxicity and fluorescence in zebrafish embryos; type: in vivo; details: 300 μM, observed at 2 hr, 20 hr, 48 hr, 72 hr
# Protocol: In detail, zebrafish embryos (donated by Hyunsook Lee Lab, School of Biological Sciences, Seoul National University) were cultured, and treated with 300 μM of resveratrone or resveratrone glucoside. At 2 hr, 20 hr, 48 hr, and 72 hr after treatment, their changes were observed.
# [13] = test system: cancer cell MCF7; test: Western blotting for cleaved parp; type: cell-based; details: MCF7, 50 μM, 48 hours
# Protocol: (§5) In detail, a cancer cell MCF7 and a normal cell MCF10A were treated with 50 μM of resveratrone, respectively, and incubated for 48 hours. The incubated cells were harvested and lysed with a NETN buffer (150 mM NaCl, 20 mM Tris/Cl pH 8.0, 0.5% v/v NP-40, 1 mM EDTA) containing a protease inhibitor, and then conjugated with a cleaved parp antibody, and sequentially, with a secondary antibody. Then, the presence or absence thereof was examined.
# [14] = test system: normal cell MCF10A; test: Western blotting for cleaved parp; type: cell-based; details: 50 μM, 48 hours
# Protocol: as §5
# [15] = test system: organoids having G12D mutation of Kras gene; test: Apoptosis in pancreatic organoids; type: cell-based, mouse; details: treatment repeated after 72 hr, read 12 hr after final treatment
# Protocol: In detail, as an alternative to a pancreatic tissue of a wild-type mouse and an individual with cancer, a pancreatic tissue having G12D mutation of Kras gene was obtained from a transgenic mouse, and the pancreatic tissue was dissociated with a dissociation solution, filtered. Then, a cell pellet containing ductal cells was collected by centrifugation, and incubated with a biological substrate material. The dissociation solution containing Hank's Balanced Salt Solution (HBSS) (3 ml), collagenase P (5 mg/ml), and DNase 1 (1 Units/μl) was used in a volume of 3 ml per pancreatic tissue (Vpan=about 1.08 mg/mm^3). When the collected cell pellet was incubated with the biological substrate material, three-dimensional pancreatic organoids were prepared by incubation under conditions of 37° C. and 5% CO2 with Matrigel which is a gelatinous protein mixture secreted from the murine Engelbreth-Holm-Swarm (EHS) sarcoma. Resveratrone and resveratrone glucoside were treated using DMSO as a solvent to reach a specific concentration with respect to the culture. After 72 hr, the medium was replaced by a fresh culture medium, and the above treatment was repeated. 12 hr after final treatment, changes of the organoids were recorded using an inverted fluorescence microscope (available from Zeiss) capable of photographing […] fluorescence. […]
# [16] = test system: cancer cells; test: Annexin V FACS, apoptotic cells in cancer cells compared with normal cells; type: cell-based; details: 100 μM resveratrone glucoside, 24 hours
# Protocol: as §1
# as §2, with “The supernatant was removed to remove remaining Alexa Fluor 647-conjugated annexin V. Thereafter, 500 μl of annexin-binding buffer was further added, and cells were passed through a cell strainer cap and stored in a round-bottom tube.” left out
SMILES,Apoptotic fraction (%) [1],Apoptotic fraction (%) [2],Apoptotic fraction (%) ([3]; 50 μM resveratrone),Apoptotic fraction (%) [4],Apoptotic fraction (%) [5],Apoptotic fraction (%) ([6]; 50 μM resveratrone),Apoptotic fraction (%) [7],Changes of cell morphology [8],Changes of cell morphology [9],TUNEL apoptotic signals [10],TUNEL apoptotic signals [11],cytotoxicity during development of zebrafish embryos [12],Cleaved parp presence [13],Cleaved parp presence [14],apoptosis induction in organoids [15],Apoptotic fraction (%) ([3]; 100 μM resveratrone glucoside),Apoptotic fraction (%) ([6]; 100 μM resveratrone glucoside),increase of number of apoptotic cells in cancer cells as compared with normal cells [16]
CC(=O)/C=C/c1ccc2cc(O)cc(O)c2c1 [resveratrone],2.0%,17.4%,1.0%,20.0%,15.5%,26.0%,39.3%,showed morphological features of apoptosis,clearly observed irrespective of treatment with resveratrone,observed only in the cancer cell MCF7,no effect on normal cells,induced no cytotoxicity,observed in the resveratrone-treated cancer cells,not observed in the resveratrone-treated normal cells,showed apoptosis induction,–,–,–
CC(=O)/C=C/c1ccc2cc(O[C@@H]3OC(CO)[C@@H](O)C(O)C3O)cc(O)c2c1 (stereo partly drawn) [resveratrone glucoside],–,–,–,–,–,–,–,–,–,observed only in the cancer cell MCF7,no effect on normal cells,induced no cytotoxicity,–,–,–,0.7%,15.5%,about 22 times
